Patent US8669232B2, “Flavonol compounds, a bioactive extract/fraction from Ulmus wallichiana and its compounds for prevention for treatment of osteo-health related disorders” (Council of Scientific & Industrial Research, priority 2008, dated 2014)

Assays:
[1] = system: ovariectomized Sprague Dawley rats; test: Uterine weight in Ovx rats (estrogen agonistic effect); format: in vivo; conditions: 1.0&5.0 mg/kg body weight, 90 days, uterine weight comparable with Ovx + vehicle
Experimental: Ethanolic extracts of […] at the doses of 500-& 750 mg/kg body weight were given daily by oral route to Sprague Dawley (180-200 g) rats after bilateral ovariectomy (Ovx). This is the most widely used animal model for osteopenia (bone loss) mimicking human condition of post-menopausal bone loss. The extract was given in gum acacia (vehicle). Sham operated rats and Ovx rats were used as controls and given only gum acacia. Each group consisted of 10 rats and the groups were as follows: sham intact, Ovx, Ovx+500 mg/kg extract and Ovx+750 mg/kg extract. Treatment started 24 h after the surgery and continued for 90 days. After 90 days, the rats were first acclimatized and then kept in metabolic cages with no food but only water for 24 h to collect urine samples. After 24 h, rats were returned to the cages with food and water ad libitum with oral administration of the extract as before foe an additional 24 hour. Rats were then euthanized and autopsied to collect blood, bones (tibia, femur, L1-L4 vertebrae) and uterus. […] at 1 to 10 mg/kg body weight were given daily by oral route to Sprague Dawley (180-200 g) rats after bilateral ovariectomy (Ovx). This is the most widely used animal model for osteopenia (bone loss) mimicking human condition of post-menopausal bone loss. The extract was given in gum acacia (vehicle). […]

[2] = system: ovariectomized Sprague Dawley rats; test: BMD by DEXA in ovariectomized (Ovx) rats, bone loss model; format: in vivo; conditions: 90 days, compared with Ovx + vehicle; for BMD tibia head: 5 mg/kg body weight oral daily
Experimental: Bone mineral density of femur (global, head, neck), tibia (global, head, tibio-fibular separation point) and lumber vertebra (LV1, LV2, LV3, LV4) was determined by DEXA.
(§1) K058 at 1 to 10 mg/kg body weight were given daily by oral route to Sprague Dawley (180-200 g) rats after bilateral ovariectomy (Ovx). This is the most widely used animal model for osteopenia (bone loss) mimicking human condition of post-menopausal bone loss. The extract was given in gum acacia (vehicle). Sham operated rats and Ovx rats were used as controls and given only gum acacia. Each group consisted of 10 rats and the groups were as follows: sham intact, Ovx, Ovx+1 mg/kg K058 and Ovx+5 mg/kg K058. Treatment started 24 h after the surgery and continued for 90 days. After 90 days, the rats were first acclimatized and then kept in metabolic cages with no food but only water for 24 h to collect urine samples. After 24 h, rats were returned to the cages with food and water ad libitum with oral administration of the extract as before foe an additional 24 hour. Rats were then euthanized and autopsied to collect blood, bones (tibia, femur, L1-L4 vertebrae) and uterus.
as §1, with “K012” for “K058”, “doses of 1- and 5” for “1 to 10”, “(Ovx).” for “(Ovx). This is the most widely used animal model for osteopenia (bone loss) mimicking human condition of post-menopausal bone loss.”, “K012.” for “K058.”, “for” for “foe”

Ishikawa cells = test: In vitro estrogenicity / anti-estrogenicity (ALP induction); format: cell-based, human; conditions: 72 h; for inhibition of increase in ALP activity stimulated by 17β-estradiol (anti-estrogenicity): 10^−11 to 10^−6 M with 10^−8 M 17β-estradiol; for ALP levels (estrogenicity): 10^−11 to 10^−6 M
Experimental: The expression of alkaline phosphatase is induced in Ishikawa cells in response to estrogen or estrogen like substances (Littlefield et al, Endocrinology. 1990 December; 127(6):2757-62.). Ishikawa cells were plated in 96-well flat bottomed microtiter plates at a density of 5000 cells/well and cultured in phenol red free DMEM containing 10% charcoal treated FCS. After 24 h of plating, cells were serum-starved for 12 h. Thereafter, for testing estrogenicity of compounds, the cells were treated with different concentrations (10^−6 to 10^−11 M) of pure compounds K058 and K012. Same concentrations of Raloxifene were also used for comparison. Estrogen concentration of 10^−8 M was used as a positive control. Compound treatments were performed for 72 h at 37° C. in CO2 incubator. Experiments were repeated 4 times. For the anti-estrogenicity studies, the compounds K012 and K058 at 10^−6 to 10^−11 M were added with 10^−8 M estrogen. After 72 h of incubation, the media was removed and the plates were washed twice with PBS and dried by tapping, gently. Freeze fracture of cells was achieved by placing the plates at −70° C. for 15, min followed by bringing to room temperature. The plates were then placed on ice and 50 μl of ice cold diethanolamine solution (5 mM P-nitrophenyl phosphate (PNP) and 0.25 mM MgCl2 in 1 M diethanolamine) was added to each well. The plates were then placed at 37° C. for 30 minutes for color (yellow) development is a function of ALP activity. Absorbance was measured at 405 nm.

[3] = 5.0 mg/kg body weight oral daily

estrogen agonistic action at the uterine level (uterine weight) [1] | Structure (SMILES) | BMD tibia head [2] | BMD L4 vertebra ([2]; 1.0&5.0 mg/kg body weight oral daily) | BMD femur global ([2]; 1.0-5.0 mg/kg oral daily) | BMD femur neck ([2]; 1.0-5.0 mg/kg oral daily) | BMD femur shaft ([2]; 1.0-5.0 mg/kg oral daily) | inhibition of increase in ALP activity stimulated by 17β-estradiol (anti-estrogenicity) (Ishikawa cells) | ALP levels (estrogenicity) (Ishikawa cells) | BMD tibio-fibular separation point (TFSP) ([2]; 1.0 mg/kg body weight oral daily) | BMD lumber vertebra global [2, 3] | BMD second lumber vertebra [2, 3] | BMD femur neck ([2]; 5.0 mg/kg oral daily) | BMD tibia global ([2]; 5.0 mg/kg oral daily) | BMD tibio-fibular separation point (TFSP) ([2]; 5.0 mg/kg oral daily)
no estrogen agonistic action | O=C1c2c(cc(O)c([C@@H]3OC(CO)[C@@H](O)[C@H](O)C3O)c2O)O[C@@H](c2ccc(O)c(O)c2)[C@@H]1O (stereo partly drawn) [K058, (2S,3S)-(+)-3′,4′,5,7-tetrahydroxydihydroflavonol-6-C-β-D-glucopyranoside] | increased | higher | significantly higher | significantly higher | significantly higher | did not inhibit | no increase | – | – | – | – | – | –
no estrogen agonistic action | O=c1c(O)c(-c2ccc(O)c(O)c2)oc2cc(O)c(C3O[C@H](CO)[C@@H](O)[C@H](O)[C@H]3O)c(O)c12 (stereo partly drawn) [K012, 6-Glucopyranosyl-3,3′,4′,5,7-pentahydroxyflavone] | significantly higher | – | – | – | – | did not inhibit | no increase | increase | higher | higher | significantly higher | significantly higher | significantly higher
